Where “and” joins values, the source holds several entries; their conditions need not be identical. Identical values can stand only once. Toxic doses and inconclusive results are not listed. No stated cut-off is given here; in the data, active means T/C of 150% or more; inactive means T/C below 125%.
Test system: L1210 leukemia ip in BDF1 mice, survival T/C
Assay: NCI In Vivo Anticancer Drug Screen. Data for tumor model L1210 Leukemia (intraperitoneal) in B6D2F1 (BDF1) mice
Conditions: endpoint: mean survival time, higher = longer survival
Outline: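 Ratio derived from survival: compound-dosed mice over vehicle-dosed mice, all bearing a transplantable tumor.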

[1] = dose: 100.0 mg/kg/injection, schedule: Q04DX003 (ip), vehicle: Klucel (hydroxypropylcellulose) (HPC)
[2] = dose: 200.0 mg/kg/injection, schedule: Q04DX003 (ip), vehicle: Klucel (hydroxypropylcellulose) (HPC)
[3] = dose: 400.0 mg/kg/injection, schedule: Q04DX003 (ip), vehicle: Klucel (hydroxypropylcellulose) (HPC)
[4] = dose: 100.0 mg/kg/injection, schedule: Q01DX009 (ip), vehicle: saline with Tween-80
[5] = dose: 100.0 mg/kg/injection, schedule: Q04DX003 (ip), vehicle: saline with Tween-80
[6] = dose: 200.0 mg/kg/injection, schedule: Q01DX009 (ip), vehicle: saline with Tween-80
[7] = dose: 200.0 mg/kg/injection, schedule: Q04DX003 (ip), vehicle: saline with Tween-80
[8] = dose: 400.0 mg/kg/injection, schedule: Q04DX003 (ip), vehicle: saline with Tween-80
[9] = dose: 100.0 mg/kg/injection, schedule: Q01DX009 (ip), vehicle: Klucel (hydroxypropylcellulose) (HPC)
[10] = dose: 200.0 mg/kg/injection, schedule: Q01DX009 (ip), vehicle: Klucel (hydroxypropylcellulose) (HPC)
[11] = dose: 400.0 mg/kg/injection, schedule: Q01DX009 (ip), vehicle: Klucel (hydroxypropylcellulose) (HPC)
[12] = dose: 50.0 mg/kg/injection, schedule: Q01DX001 (ip), vehicle: saline
[13] = dose: 100.0 mg/kg/injection, schedule: Q01DX001 (ip), vehicle: saline
[14] = dose: 200.0 mg/kg/injection, schedule: Q01DX001 (ip), vehicle: saline
[15] = dose: 400.0 mg/kg/injection, schedule: Q01DX001 (ip), vehicle: saline
[16] = dose: 100.0 mg/kg/injection, schedule: Q04DX003 (ip), vehicle: saline
[17] = dose: 200.0 mg/kg/injection, schedule: Q04DX003 (ip), vehicle: saline
[18] = dose: 100.0 mg/kg/injection, schedule: Q04DX002 (ip), vehicle: Klucel (hydroxypropylcellulose) (HPC)
[19] = dose: 200.0 mg/kg/injection, schedule: Q04DX002 (ip), vehicle: Klucel (hydroxypropylcellulose) (HPC)
[20] = dose: 400.0 mg/kg/injection, schedule: Q04DX003 (ip), vehicle: saline

Measured: T/C

O=c1nc(NC2OC(CO)C(O)C2O)ccn1C1OC(CO)C(O)C1O (stereo not given)
inactive: dose: 100.0 mg/kg/injection, schedule: Q01DX005 (ip), vehicle: saline 102 % of control | dose: 200.0 mg/kg/injection, schedule: Q01DX005 (ip), vehicle: saline 108 % of control

CCCCCCCCCCCCSC(=O)Nc1cc([N+](=O)[O-])ccc1C
inactive: [1] 92 % of control | [2] 88 % of control | [3] 88 % of control

CCOc1ccc(/C=N/NC(=O)c2ccccc2NC(=O)C2CC2)cc1OC
inactive: [4] 100 % of control | [5] 92 % of control | [6] 92 % of control | [7] 95 % of control | dose: 400.0 mg/kg/injection, schedule: Q01DX009 (ip), vehicle: saline with Tween-80 94 % of control | [8] 90 % of control

COc1ccc(C)cc1NC(=O)C(Br)C(Br)C(=O)O (stereo not given)
inactive: [9] 100 % of control | [10] 97 % of control | [11] 96 % of control

O=C(O)C(O)C(O)C(=O)O (stereo not given)
inactive: dose: 100.0 mg/kg/injection, schedule: Q01DX009 (ip), vehicle: saline 106 % of control | dose: 200.0 mg/kg/injection, schedule: Q01DX009 (ip), vehicle: saline 104 % of control | dose: 400.0 mg/kg/injection, schedule: Q01DX009 (ip), vehicle: saline 102 % of control

Cc1ccccc1C=O
inactive: [12] 97 % of control | [13] 94 % of control | [14] 94 % of control | [15] 94 % of control

COc1ccccc1NC(=O)c1ccc(Cl)cc1
inactive: [9] 91 % of control | [1] 105 % of control | [10] 98 % of control | [2] 108 % of control | [11] 102 % of control | [3] 97 % of control

CCCCC(=O)N1CC(C)OC(C)C1 (stereo not given)
inactive: dose: 100.0 mg/kg/injection, schedule: Q01DX001 (ip), vehicle: carboxymethylcellulose (CMC) 97 % of control | dose: 100.0 mg/kg/injection, schedule: Q01DX009 (ip), vehicle: carboxymethylcellulose (CMC) 96 % of control | dose: 100.0 mg/kg/injection, schedule: Q04DX002 (ip), vehicle: carboxymethylcellulose (CMC) 102 % of control | dose: 100.0 mg/kg/injection, schedule: Q04DX003 (ip), vehicle: carboxymethylcellulose (CMC) 102 % of control | dose: 200.0 mg/kg/injection, schedule: Q01DX001 (ip), vehicle: carboxymethylcellulose (CMC) 102 % of control | dose: 200.0 mg/kg/injection, schedule: Q01DX009 (ip), vehicle: carboxymethylcellulose (CMC) 94 % of control and 104 % of control | dose: 200.0 mg/kg/injection, schedule: Q04DX002 (ip), vehicle: carboxymethylcellulose (CMC) 98 % of control | dose: 200.0 mg/kg/injection, schedule: Q04DX003 (ip), vehicle: carboxymethylcellulose (CMC) 102 % of control | dose: 400.0 mg/kg/injection, schedule: Q01DX001 (ip), vehicle: carboxymethylcellulose (CMC) 106 % of control | dose: 400.0 mg/kg/injection, schedule: Q01DX009 (ip), vehicle: carboxymethylcellulose (CMC) 94 % of control and 98 % of control | dose: 400.0 mg/kg/injection, schedule: Q04DX002 (ip), vehicle: carboxymethylcellulose (CMC) 105 % of control | dose: 400.0 mg/kg/injection, schedule: Q04DX003 (ip), vehicle: carboxymethylcellulose (CMC) 96 % of control

C#CC(C)OCC(C)OC (stereo not given)
inactive: dose: 25.0 mg/kg/injection, schedule: Q01DX009 (ip), vehicle: acetone 97 % of control | dose: 50.0 mg/kg/injection, schedule: Q01DX009 (ip), vehicle: acetone 103 % of control | dose: 100.0 mg/kg/injection, schedule: Q04DX003 (ip), vehicle: acetone 102 % of control

Nc1c(F)c(F)c(N)c(F)c1F
inactive: dose: 100.0 mg/kg/injection, schedule: Q01DX001 (ip), vehicle: acetone 93 % of control | dose: 400.0 mg/kg/injection, schedule: Q01DX001 (ip), vehicle: acetone 89 % of control

OCCC#CCCOC1CCCCO1 (stereo not given)
inactive: dose: 100.0 mg/kg/injection, schedule: Q04DX002 (ip), vehicle: saline with Tween-80 93 % of control | dose: 200.0 mg/kg/injection, schedule: Q04DX002 (ip), vehicle: saline with Tween-80 103 % of control | dose: 400.0 mg/kg/injection, schedule: Q04DX002 (ip), vehicle: saline with Tween-80 103 % of control

CCCCCCCC1CCC(=O)O1 (stereo not given)
inactive: dose: 50.0 mg/kg/injection, schedule: Q04DX003 (ip), vehicle: saline 103 % of control | [13] 95 % of control | [16] 105 % of control | [14] 98 % of control | [17] 97 % of control | [15] 100 % of control

CC12CC(c3ccoc3)OC(=O)C1CCC1(C)C2C2C=CC1(O)C(=O)O2 (stereo not given)
inactive: [13] 104 % of control | [14] 98 % of control | [15] 104 % of control

CCCCCCCCCCC(=O)[O][Hg][c]1ccccc1
inactive: dose: 9.38 mg/kg/injection, schedule: Q01DX001 (ip), vehicle: saline 98 % of control | dose: 18.75 mg/kg/injection, schedule: Q01DX001 (ip), vehicle: saline 93 % of control

Cc1ccc(NC(=S)Nc2ccccc2)cc1Cl
inactive: [18] 106 % of control | [19] 100 % of control | dose: 400.0 mg/kg/injection, schedule: Q04DX002 (ip), vehicle: Klucel (hydroxypropylcellulose) (HPC) 100 % of control

CC/C=N\NC
inactive: dose: 5.0 mg/kg/injection, schedule: Q01DX001 (ip), vehicle: saline 111 % of control | dose: 6.6 mg/kg/injection, schedule: Q01DX015 (ip), vehicle: saline 94 % of control | dose: 10.0 mg/kg/injection, schedule: Q01DX001 (ip), vehicle: saline 103 % of control | dose: 10.0 mg/kg/injection, schedule: Q01DX015 (ip), vehicle: saline 94 % of control | dose: 15.0 mg/kg/injection, schedule: Q01DX015 (ip), vehicle: saline 100 % of control | dose: 20.0 mg/kg/injection, schedule: Q01DX001 (ip), vehicle: saline 112 % of control | dose: 22.5 mg/kg/injection, schedule: Q01DX015 (ip), vehicle: saline 95 % of control | dose: 40.0 mg/kg/injection, schedule: Q01DX001 (ip), vehicle: saline 120 % of control

O=C(N/N=C/c1ccc(Cl)cc1Cl)c1cccc([N+](=O)[O-])c1
inactive: [9] 100 % of control | [10] 100 % of control | [11] 94 % of control

O=C(O)c1ccc(NC(=O)c2ccc3ccccc3c2O)cc1
inactive: dose: 100.0 mg/kg/injection, schedule: Q01DX001 (ip), vehicle: saline with Tween-80 104 % of control | [4] 109 % of control | [5] 102 % of control | dose: 200.0 mg/kg/injection, schedule: Q01DX001 (ip), vehicle: saline with Tween-80 103 % of control | [6] 110 % of control | [7] 100 % of control | dose: 400.0 mg/kg/injection, schedule: Q01DX001 (ip), vehicle: saline with Tween-80 101 % of control | [8] 96 % of control

FC(F)(F)c1cccc(NC(=S)SCc2ccc(Cl)cc2)c1
inactive: dose: 15.0 mg/kg/injection, schedule: Q04DX003 (ip), vehicle: saline 102 % of control | dose: 30.0 mg/kg/injection, schedule: Q04DX003 (ip), vehicle: saline 102 % of control | dose: 60.0 mg/kg/injection, schedule: Q04DX003 (ip), vehicle: saline 102 % of control | [18] 87 % of control | [19] 112 % of control

NC(N)=N/N=C/c1nccc2ccccc12
inactive: [12] 102 % of control | [13] 102 % of control

CCc1nc2c(OC)ccc(OC)c2nc1C
inactive: dose: 75.0 mg/kg/injection, schedule: Q01DX001 (ip), vehicle: other 96 % of control | dose: 150.0 mg/kg/injection, schedule: Q01DX001 (ip), vehicle: other 96 % of control

Clc1ccc(/C=N\c2nn[nH]n2)c(Cl)c1 (tested in a mixture with another compound)
inactive: [16] 89 % of control | [17] 89 % of control | [20] 98 % of control

c1ccc2cc(CCc3cc4ccccc4cn3)ncc2c1
inactive: [16] 105 % of control | [17] 94 % of control | [20] 87 % of control

From PubChem BioAssay AID248 (DTP/NCI, 2004)
